Experimental data as given in US20090068290A1, “BIFEPRUNOX DOSES FOR TREATING SCHIZOPHRENIA” (priority 2006, published 2009).

Columns and labels:
[1] = tested on: adult subjects with schizophrenia; test: PANSS negative symptom subscale score, Clinical Study Three; assay type: in vivo, human; conditions: LOCF; for Change from Baseline in PANSS Negative Symptom Subscale Score, Mean (SD) / Change from Baseline in PANSS Negative Symptom Subscale Score, Median: Olanzapine 15 mg, ITT population
Description: SECONDARY OBJECTIVES To assess the efficacy of bifeprunox in treating schizophrenia using the Positive Symptom sub-scale score of the PANSS, the Negative Symptom sub-scale score of the PANSS, the General Psychopathology sub-scale of the PANSS, Brief Psychiatric Rating Scale (BPRS) total score derived from the PANSS, BPRS psychosis score derived from the PANSS, the Clinical Global Impression Severity of Illness score (CGI-S), the Clinical Global Impression Improvement score (CGI-I), CGI-I responder rate, PANSS responder rate based on the PANSS total score, Calgary Depression Scale for Schizophrenia (CDSS), and Subject Satisfaction rating.
There were four treatment arms in this study, approximately 144 subjects per arm. […] After completing the Single-Blind Placebo Lead-in Period of at least three days, bifeprunox-treated subjects were titrated from 0.25 mg up to 20 mg/day or 30 mg/day according to a standardized titration scheme over a seven- or eight-day period, respectively. When the assigned dose was reached, subjects were maintained at that dose for the remainder of the six week treatment period. […] Subjects were hospitalized (if not already inpatients) after eligibility for study entry was verified, starting from the Screening Visit until at least 10 days after Baseline. Subjects could be hospitalized longer than 10 days if considered medically necessary by the Investigator. Rating scale assessments for efficacy and abnormal movement disorders were done weekly except for Week 5. […] Subject satisfaction with study medication was assessed at Week 6.

[2] = Body weight, Clinical Study One; assay type: in vivo, human; conditions: Risperidone 6 mg
Description: Statistical testing of the change from Baseline in weight was performed using similar methodology to that used for the secondary efficacy parameters (an ANCOVA model with factors for treatment and weight at Baseline). Pairwise comparisons of the bifeprunox treatment groups versus placebo were all statistically significant (bifeprunox 5 mg [p=0.025], bifeprunox 10 mg [p=0.009] and bifeprunox 20 mg [p=0.031] for the difference between bifeprunox and placebo mean change from Baseline in weight at Endpoint.

[3] = Pooled metabolic analysis, 6-week studies: body weight; conditions: 6-week studies
Excerpt: OBJECTIVE: To examine the metabolic effects of bifeprunox in patients with acute and stable schizophrenia.
METHODS: Metabolic data was compiled from one 6-month and four 6-week studies (i.e., a treatment period) of bifeprunox in patients with stable and acute schizophrenia, respectively. In the 6-month study, patients received bifeprunox (n=331) or placebo (PBO) (n=166). […] Metabolic evaluations included body weight, body mass index (BMI), plasma glucose and lipid profiles. Fasting glucose and lipid values were assessed in one 6-week study and in the 6-month study. Triglyceride:HDL ratio (TG:HDL) was calculated as a marker of insulin resistance. No statistical analyses were performed; only descriptive statistics are presented.

[4] = tested on: adult subjects with schizophrenia; test: Adverse events (TEAE, SAE, special interest, EPS-related TEAE), Clinical Study Two; assay type: in vivo, human; conditions: Risperidone 6 mg
Description: (§1) Subjects who completed this study had the option to continue in the long-term. […] Risperidone-treated subjects were titrated from 2 mg to 6 mg daily over a three-day period and were subsequently maintained at 6 mg/day for the remainder of the treatment period. […] Blood samples were also obtained at Screening/Baseline, Week 3, and Week 6 for clinical laboratory assessments.

[5] = tested on: adult subjects with schizophrenia; test: CGI Severity of Illness score, Clinical Study Two; assay type: in vivo, human; conditions: LOCF; for Change from Baseline in CGI Severity of Illness Score, Mean (SD) / Change from Baseline in CGI Severity of Illness Score, Median: Risperidone 6 mg, ITT population
Description: Rating scale assessments were performed weekly, except for week 5, to measure the change from baseline to endpoint of the PANSS total score. Other assessments included: PANSS positive symptom subscale score, PANSS negative symptom subscale score, PANSS general pschopathology subscale score, BPRS total score, BPRS psychosis score, the CGI-S score, the CGI-I score, responder rates based on the PANSS total score, and the Calgary Depression Scale for Schizophrenia (CDSS). […]
as §1

Cc1cc2c(s1)Nc1ccccc1N=C2N1CCN(C)CC1 [Olanzapine, olanzapine, reference compound]
Change from Baseline in PANSS Negative Symptom Subscale Score, Mean (SD) ([1]; Week 1): −1.8 (3.1) | Change from Baseline in PANSS Negative Symptom Subscale Score, Median ([1]; Week 1): −1 | Change from Baseline in PANSS Negative Symptom Subscale Score, Mean (SD) ([1]; Week 2): −3.0 (3.8) | Change from Baseline in PANSS Negative Symptom Subscale Score, Median ([1]; Week 2): −3 | Change from Baseline in PANSS Negative Symptom Subscale Score, Mean (SD) ([1]; Week 3): −4.0 (4.8) | Change from Baseline in PANSS Negative Symptom Subscale Score, Median ([1]; Week 3): −3 | Change from Baseline in PANSS Negative Symptom Subscale Score, Mean (SD) ([1]; Week 4): −4.0 (4.9) | Change from Baseline in PANSS Negative Symptom Subscale Score, Median ([1]; Week 4): −4 | Change from Baseline in PANSS Negative Symptom Subscale Score, Mean (SD) ([1]; Week 6/Endpoint): −4.6 (5.2) | Change from Baseline in PANSS Negative Symptom Subscale Score, Median ([1]; Week 6/Endpoint): −4 | mean change (SD) from Baseline to Endpoint in PANSS Negative Symptom subscale score ([1]; olanzapine 15 mg, ITT): −4.6 (5.2)

Cc1nc2n(c(=O)c1CCN1CCC(c3noc4cc(F)ccc34)CC1)CCCC2 [Risperidone, risperidone, reference compound]
mean weight change (increase) [2]: 4.8 lb | subjects who decreased their weight by ≧7% [2]: No subjects | subjects who increased their weight by ≧7% [2]: 13% | mean weight increase at endpoint ([3]; pooled): 1.7 kg | mean weight change ([3]; pooled (overall summary)): +1.7 kg | AKATHISIA, % [4]: (10%) | BRADYKINESIA, % [4]: (1%) | DISTURBANCE IN ATTENTION, % [4]: (1%) | DIZZINESS, % [4]: (6%) | DYSARTHRIA, % [4]: (2%) | DYSKINESIA, % [4]: (<1%) | Dystonia, % [4]: (7%) | EXTRAPYRAMIDAL DISORDER, % [4]: (14%) | HEADACHE NOS, % [4]: (15%) | Hypoaesthesia, % [4]: 1 (<1%) | Memory Impairment, % [4]: 1 (<1%) | NERVOUS SYSTEM DISORDERS, % [4]: (53%) | Parkinsonism, % [4]: 1% | SEDATION, % [4]: 7% | SINUS HEADACHE, % [4]: 1 (<1%) | SOMNOLENCE, % [4]: 6% | TARDIVE DYSKINESIA, % [4]: 2% | TREMOR, % [4]: 5% | incidence of severe TEAE of schizophrenia [4]: 2% | subjects with at least one TEAE [4]: 78% | Change from Baseline in CGI Severity of Illness Score, Mean (SD) ([5]; Week 1): −0.39 (0.63) | Change from Baseline in CGI Severity of Illness Score, Median ([5]; Week 1): 0.0 | Change from Baseline in CGI Severity of Illness Score, Mean (SD) ([5]; Week 2): −0.73 (0.95) | Change from Baseline in CGI Severity of Illness Score, Median ([5]; Week 2): −1.0 | Change from Baseline in CGI Severity of Illness Score, Mean (SD) ([5]; Week 3): −0.94 (1.00) | Change from Baseline in CGI Severity of Illness Score, Median ([5]; Week 3): −1.0 | Change from Baseline in CGI Severity of Illness Score, Mean (SD) ([5]; Week 4): −1.02 (1.09) | Change from Baseline in CGI Severity of Illness Score, Median ([5]; Week 4): −1.0 | Change from Baseline in CGI Severity of Illness Score, Mean (SD) ([5]; Week 6/Endpoint): −1.06 (1.20) | Change from Baseline in CGI Severity of Illness Score, Median ([5]; Week 6/Endpoint): −1.0 | mean change (SD) from Baseline to Endpoint in CGI severity of illness score ([5]; risperidone 6 mg, ITT): −1.06 (1.20)
